Test results taken from patent US5700640A, “Inducers of gamma globin gene expression and screening assays therefor” (priority 1994, dated 1997).

Assays:
[1] = system: GATA-1 mRNA; test: Northern hybridization of GATA-1 mRNA in treated K562 cells; assay type: cell-based, human
Experimental: Total RNA was prepared by the method of McDonald as described in Sambrook et al., (1989) Molecular Cloning: A Laboratory Manual, 2nd Edition, Cold Spring Harbor Laboratory Press. 10 μg total cellular RNA was electrophoresed through agarose gels containing 3.3% formaldehyde. The electrophoresed RNA was then transferred to nitrocellulose filters by standard methods. Each sample was hybridized to specific probes for gamma globin mRNA, mRNA encoding the erythroid specific transcription factor GATA-1 and 28S ribosomal RNA (which was used for standardization). The gamma globin and GATA-1 probes were cDNA probes, which were labeled with ^32 p by random priming reactions (Promega Biotech Inc.). The 28S ribosomal RNA probe was an oligonucleotide having the sequence 5' […] 3' (SEQ ID NO: 3), which was labeled by 5' end labeling using T4 polynucleotide kinase (New England Biolabs). Nucleotide probes were hybridized to the RNA nitrocellulose filters according to standard techniques. After hybridization, radioactive signals on the nitrocellulose filters were directly quantified using a BioRad GS-250 Molecular Imager. mRNA hybridization intensities were normalized to the amount of 28S ribosomal RNA present for each sample.

[2] = system: GATA-1 mRNA; test: GATA-1 mRNA level (Northern) with BA and/or cycloheximide in gamma3'PE cells; assay type: cell-based, human; conditions: BA 5 mM, 5 hr
Experimental: To determine if BA exerts its inductive effects by acting directly on pre-existing proteins in the cells, the effect of the protein synthesis inhibitor cycloheximide (CHX) on BA-induced expression of RNA was analyzed. In these experiments, gamma3'PE cells were incubated with 150 μg/ml CHX for 2 hr prior to addition of BA (5 mM). Control cells were incubated with either CHX or BA alone or were mock incubated. Cells were harvested 5 hr later for preparation of total RNA. RNA samples were electrophoresed, transferred to nitrocellulose and hybridized to a ^32 P-labeled luciferase cDNA probe as described in Example 4. The radioactive signals on the filter were quantitated using a BioRad GS-250 Molecular Imager and mRNA levels were normalized to values obtained for mock treated samples. The results are presented graphically in FIG. 12, Panel A. BA treatment alone increased gamma globin-regulated luciferase mRNA by approximately 6 fold.
The results, normalized to mock treated samples, are depicted graphically in FIG. 12, Panel B. In contrast to luciferase mRNA which was induced by BA treatment, the level of GATA-1 RNA decreases about 3 fold in response to BA treatment.

[3] = system: erythroid differentiation of cultured cells; conditions: Leder and Leder 1975; cited from earlier work
[4] = system: gamma globin gene expression; conditions: cited from earlier work

CCCC(=O)O [BA, butyric acid]
fold induction at 5000 µM ([1]; Homo sapiens, K562, 96 h, read-out: Fold Induction, GATA-1 RNA): 1
Raw Value, GATA-1 RNA ([1]; K562 cells, 5 mM, 96 hours): 2.23 × 10^5
Normalized Value, GATA-1 RNA ([1]; normalized to 28S ribosomal RNA, K562 cells, 5 mM, 96 hours): 5.8 × 10^4
decrease in GATA-1 RNA level [2]: about 3 fold
induction of erythroid differentiation [3]: potent inducer of erythroid differentiation of cultured cells
effect on gamma globin gene expression ([4]; in vitro and in vivo): increase gamma globin gene expression in vitro and in vivo
effect on fetal to adult hemoglobin switch ([4]; in vivo): delay the fetal to adult hemoglobin switch in vivo
